In assay [1] the test system is rrAML with an IDH2 mutation. Kind of assay: FLT3 mutation status and Compound 1 response in rrAML patients of the Example 1 trial (FoundationOne Heme panel, LabPMM PCR). It counts as in vivo, human. How it is done:
A subset of the clinical samples from the trial described in Example 1 were analyzed at screening. Sample types included bone marrow, peripheral blood and mononuclear cells isolated from bone marrow or peripheral blood. DNAs were extracted from these samples and sequenced at Foundation Medicine (Heme Panel, see http://foundationone.com/learn.php) using next generation sequencing technique.
Overall response rate (ORR), the primary efficacy endpoint, is defined as the rate of responders including complete remission (CR), CR with incomplete platelet recovery (CRp), marrow CR (mCR) (morphologic leukemia-free state [MLFS] for subjects with AML), CR with incomplete hematologic recovery (CRi), and partial remission (PR). Other measures of clinical activity including complete remission rate (CRR), duration of remission/response, event-free survival, overall survival, and time to remission/response will be summarized.
FoundationOne Heme panel analysis was performed on 100 screening samples from rrAML patients in the trial described in Example 1. Sample types included peripheral blood and bone marrow.
Therefore, the lower frequency reported in the above study is likely due to lack of recruitment of patients with FLT3-ITD mutations.
Tables 8 provides a contingency table indicating lack of statistical significance for lower ORR observed in efficacy evaluable patients presenting with FLT3-ITD and Table 9 provides a contingency table indicating statistical significance of lower ORR seen in patients presenting with either FLT3-ITD or FLT3 point mutation (PM).

A further assay has as its system 2-HG plasma levels. Kind of assay: Phase 1/2 study AG221-C-001: pharmacodynamic response (2-HG plasma levels). It counts as in vivo, human. How it is done:
2HG can be detected in a sample by the methods of PCT Publication No. WO 2011/050210 and US Publication No. US2012/0121515 hereby incorporated by reference in their entirety, or by analogous methods. In an exemplary method, 2HG can be detected in a sample by LC/MS. The sample is mixed 80:20 with methanol, and centrifuged at 3,000 rpm for 20 minutes at 4 degrees Celsius. The resulting supernatant can be collected and stored at −80 degrees Celsius prior to LC-MS/MS to assess 2-hydroxyglutarate levels. A variety of different liquid chromatography (LC) separation methods can be used. Each method can be coupled by negative electrospray ionization (ESI, −3.0 kV) to triple-quadrupole mass spectrometers operating in multiple reaction monitoring (MRM) mode, with MS parameters optimized on infused metabolite standard solutions. Metabolites can be separated by reversed phase chromatography using 10 mM tributyl-amine as an ion pairing agent in the aqueous mobile phase, according to a variant of a previously reported method (Luo et al. J Chromatogr A 1147, 153-64, 2007). One method allows resolution of TCA metabolites: t=0, 50% B; t=5, 95% B; t=7, 95% B; t=8, 0% B, where B refers to an organic mobile phase of 100% methanol. Another method is specific for 2-hydroxyglutarate, running a fast linear gradient from 50%-95% B (buffers as defined above) over 5 minutes. A Synergi Hydro-RP, 100 mm×2 mm, 2.1 μm particle size (Phenomonex) can be used as the column, as described above. Metabolites can be quantified by comparison of peak areas with pure metabolite standards at known concentration. Metabolite flux studies from ^13C-glutamine can be performed as described, e.g., in Munger et al. Nat Biotechnol 26, 1179-86, 2008. […]
Subjects in the dose escalation phase and Part 1 Expansion also will undergo PK/PD assessments over a 10-hour period on C1D15, C2D1, and C4D1. […] Available bone marrow biopsy samples also will be assessed for 2-HG and α-KG levels. […]

The mark [2] stands for this setting: FLT3-ITD+ efficacy evaluable patients.
Setting [3] is: FLT3-ITD+/PM+ patients (either FLT3-ITD or FLT3 point mutation).
Setting [4] is: FLT3-ITD− efficacy evaluable patients.

Molecules are shown by their SMILES.

On to `CC(C)(O)CNc1nc(Nc2ccnc(C(F)(F)F)c2)nc(-c2cccc(C(F)(F)F)n2)n1` [COMPOUND 1, 2-methyl-1-[(4-[6-(trifluoromethyl)pyridin-2-yl]-6-{[2-(trifluoromethyl)pyridin-4-yl]amino}-1,3,5-triazin-2-yl)amino]propan-2-ol], for which the “No Response (number of patients)” value is given as 3 in assay [1] (setting [2]), 9 in assay [1] (setting [3]), 38 in assay [1] (setting [4]) and 42 in assay [1] (FLT3-ITD−/PM− patients). The “Response (number of patients)” value was 0 in assay [1] (setting [2]), 1 in assay [1] (setting [3]), 33 in assay [1] (setting [4]) and 40 in assay [1] (FLT3-ITD−/PM− patients). The ORR was determined as 0% in assay [1] (FLT3-ITD+ patients) and 10.0% in assay [1] (FLT3-ITD+/PM+ patients (mFLT3)). Further, the “Odds ratio (response, mFLT3 vs FLT3-ITD−/PM−)” value in assay [1] (Fisher's Exact test, p = 0.039) is reported as 0.117. Further, in assay [1] (Fisher's Exact test, p = 0.249), the “Odds ratio (response, FLT3-ITD+ vs FLT3-ITD−)” value is 0.164. Further, the “reduction in 2-HG plasma levels” value with 2-HG plasma levels (by Day 1 of Cycle 2, subjects of AG221-C-001) is listed as “sustained reduction”. The “inhibition of 2-HG plasma levels” value in the assay on 2-HG plasma levels (most subjects with R140Q mutation, all doses) is listed as “up to 98%”. Moreover, the “exposure and inhibition of 2-HG in relation to dose” value in the assay with 2-HG plasma levels (subjects with R172K mutation) was “Increasing dose is associated with higher exposure and inhibition of 2-HG”.
